Results taken from patent US9637472B2, “Substituted 6,5-fused bicyclic heteroaryl compounds” (Epizyme, Inc., priority 2011, dated 2017).
pIC50: −log10 of the molar value.

Target: EZH2 (Homo sapiens (Human), UniProt Q15910)
Assay: PRC2 enzyme assay on peptide substrates
Format: biochemical
Details: PRC2 enzyme assays on peptide substrates; 4 nM enzyme, 30 min preincubation at 25° C.; read-out: EZH2 IC50
Text: General Materials. S-adenosylmethionine (SAM), S-adenosylhomocyteine (SAH), bicine, KCl, Tween20, dimethylsulfoxide (DMSO) and bovine skin gelatin (BSG) were purchased from Sigma-Aldrich at the highest level of purity possible. Dithiothreitol (DTT) was purchased from EMD. ^3H-SAM was purchased from American Radiolabeled Chemicals with a specific activity of 80 Ci/mmol. 384-well streptavidin Flashplates were purchased from PerkinElmer.
Substrates. […] The sequences are listed below.
Recombinant PRC2 Enzymes. Human PRC2 enzymes were purified as 4-component enzyme complexes co-expressed in Spodoptera frugiperda (sf9) cells using a baculovirus expression system. The subunits expressed were wild-type EZH2 (NM_004456) or EZH2 Y641F, N, H, S or C mutants generated from the wild-type EZH2 construct, EED (NM_003797), Suz12 (NM_015355) and RbAp48 (NM_005610). The EED subunit contained an N-terminal FLAG tag that was used to purify the entire 4-component complex from sf9 cell lysates.
General Procedure for PRC2 Enzyme Assays on Peptide Substrates. The assays were all performed in a buffer consisting of 20 mM bicine (pH=7.6), 0.5 mM DTT, 0.005% BSG and 0.002% Tween20, prepared on the day of use. […] DMSO (1 μL) was added to columns 11, 12, 23, 24, rows A-H for the maximum signal control, and SAH, a known product and inhibitor of PRC2 (1 μL) was added to columns 11, 12, 23, 24, rows I-P for the minimum signal control. A cocktail (40 μL) containing the wild-type PRC2 enzyme and H3K27me0 peptide or any of the Y641 mutant enzymes and H3K27me2 peptide was added by Multidrop Combi (Thermo). The compounds were allowed to incubate with PRC2 for 30 min at 25° C., then a cocktail (10 μL) containing a mixture of non-radioactive and ^3H-SAM was added to initiate the reaction (final volume=51 μL). […] The assays were stopped by the addition of non-radioactive SAM (10 μL) to a final concentration of 600 μM, which dilutes the ^3H-SAM to a level where its incorporation into the peptide substrate is no longer detectable. 50 μL of the reaction in the 384-well polypropylene plate was then transferred to a 384-well Flashplate and the biotinylated peptides were allowed to bind to the streptavidin surface for at least 1 h before being washed three times with 0.1% Tween20 in a Biotek ELx405 plate washer. The plates were then read in a PerkinElmer TopCount platereader to measure the quantity of ^3H-labeled peptide bound to the Flashplate surface, measured as disintegrations per minute (dpm) or alternatively, referred to as counts per minute (cpm).
Where dpm=disintegrations per minute, cmpd=signal in assay well, and min and max are the respective minimum and maximum signal controls.
Where top and bottom are the normally allowed to float, but may be fixed at 100 or 0 respectively in a 3-parameter fit. The Hill Coefficient normally allowed to float but may also be fixed at 1 in a 3-parameter fit. Y is the % inhibition and X is the compound concentration.

EZH2, sequence (Q15910 other isoform, or with tags, fused parts or gaps): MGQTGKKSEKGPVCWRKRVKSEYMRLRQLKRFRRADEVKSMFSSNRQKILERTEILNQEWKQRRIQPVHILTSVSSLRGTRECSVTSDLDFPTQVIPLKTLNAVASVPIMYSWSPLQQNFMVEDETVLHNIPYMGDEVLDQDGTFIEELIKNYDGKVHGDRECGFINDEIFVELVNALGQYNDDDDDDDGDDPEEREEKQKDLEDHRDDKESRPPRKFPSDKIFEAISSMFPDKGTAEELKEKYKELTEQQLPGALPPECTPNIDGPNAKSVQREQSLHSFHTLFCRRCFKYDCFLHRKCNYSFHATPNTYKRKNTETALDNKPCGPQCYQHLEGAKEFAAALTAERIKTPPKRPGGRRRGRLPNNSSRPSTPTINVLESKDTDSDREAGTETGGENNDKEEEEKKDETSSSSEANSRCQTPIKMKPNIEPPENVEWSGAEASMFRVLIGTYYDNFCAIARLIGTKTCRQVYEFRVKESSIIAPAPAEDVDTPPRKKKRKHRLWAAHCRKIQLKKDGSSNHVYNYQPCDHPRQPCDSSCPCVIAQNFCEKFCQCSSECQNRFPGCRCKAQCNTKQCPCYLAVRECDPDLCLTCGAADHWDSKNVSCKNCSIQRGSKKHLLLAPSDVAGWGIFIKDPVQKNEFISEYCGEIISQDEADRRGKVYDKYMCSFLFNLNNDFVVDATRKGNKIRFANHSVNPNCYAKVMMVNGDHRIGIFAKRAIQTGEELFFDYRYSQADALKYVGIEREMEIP
EZH2, sequence (O75530 whole entry partner): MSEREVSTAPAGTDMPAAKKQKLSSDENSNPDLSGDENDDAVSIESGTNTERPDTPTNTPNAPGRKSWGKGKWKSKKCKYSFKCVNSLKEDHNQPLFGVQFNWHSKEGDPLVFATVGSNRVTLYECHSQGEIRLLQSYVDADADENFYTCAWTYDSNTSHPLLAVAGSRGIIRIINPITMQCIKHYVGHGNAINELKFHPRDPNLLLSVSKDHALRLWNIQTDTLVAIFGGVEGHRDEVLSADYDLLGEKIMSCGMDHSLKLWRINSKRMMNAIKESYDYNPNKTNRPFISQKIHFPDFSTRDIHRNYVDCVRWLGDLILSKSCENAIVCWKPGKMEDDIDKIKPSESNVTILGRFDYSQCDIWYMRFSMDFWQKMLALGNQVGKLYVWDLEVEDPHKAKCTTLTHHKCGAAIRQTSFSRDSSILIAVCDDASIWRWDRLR
EZH2, sequence (Q15022 whole entry partner): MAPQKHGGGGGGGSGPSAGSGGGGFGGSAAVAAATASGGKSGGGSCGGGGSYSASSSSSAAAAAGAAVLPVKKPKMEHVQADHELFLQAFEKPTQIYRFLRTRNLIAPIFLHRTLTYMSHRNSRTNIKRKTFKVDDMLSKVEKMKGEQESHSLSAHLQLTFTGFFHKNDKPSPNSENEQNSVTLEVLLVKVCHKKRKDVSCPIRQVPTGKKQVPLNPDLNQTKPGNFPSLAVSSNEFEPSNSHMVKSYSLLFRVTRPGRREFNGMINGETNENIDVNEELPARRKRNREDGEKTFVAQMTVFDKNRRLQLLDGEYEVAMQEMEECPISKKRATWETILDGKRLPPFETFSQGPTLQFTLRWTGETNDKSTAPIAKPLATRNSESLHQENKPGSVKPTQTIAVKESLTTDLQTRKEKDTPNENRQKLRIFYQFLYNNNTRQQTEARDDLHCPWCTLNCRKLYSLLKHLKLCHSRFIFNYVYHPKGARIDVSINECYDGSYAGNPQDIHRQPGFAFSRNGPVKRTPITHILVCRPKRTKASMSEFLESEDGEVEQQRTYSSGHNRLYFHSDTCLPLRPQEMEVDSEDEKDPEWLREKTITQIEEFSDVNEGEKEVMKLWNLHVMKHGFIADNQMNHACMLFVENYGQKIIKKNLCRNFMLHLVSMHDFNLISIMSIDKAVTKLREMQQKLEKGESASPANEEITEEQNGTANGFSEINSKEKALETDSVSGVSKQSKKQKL
EZH2, sequence (Q09028 whole entry partner): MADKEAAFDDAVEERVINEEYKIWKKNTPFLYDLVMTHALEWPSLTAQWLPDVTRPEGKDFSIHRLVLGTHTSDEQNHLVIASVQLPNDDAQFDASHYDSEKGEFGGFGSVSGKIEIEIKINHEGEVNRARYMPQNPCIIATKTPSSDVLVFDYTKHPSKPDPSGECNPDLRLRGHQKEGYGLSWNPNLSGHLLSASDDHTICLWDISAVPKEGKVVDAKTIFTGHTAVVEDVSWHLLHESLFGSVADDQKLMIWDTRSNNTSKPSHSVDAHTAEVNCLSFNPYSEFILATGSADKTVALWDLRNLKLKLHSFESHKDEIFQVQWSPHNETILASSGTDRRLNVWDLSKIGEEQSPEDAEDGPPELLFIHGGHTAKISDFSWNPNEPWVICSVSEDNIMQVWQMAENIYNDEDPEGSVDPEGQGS

Row | SMILES | pIC50
1 | Cc1cc(C)c(CNC(=O)c2cc(N3CCN(C)CC3)nc3c2cnn3C(C)C)c(=O)[nH]1 [Compound B-9, N-((4,6-dimethyl-2-oxo-1,2-dihydropyridin-3-yl)methyl)-1-isopropyl-6-(4-methylpiperazin-1-yl)-1H-pyrazolo[3,4-b]pyridine-4-carboxamide] | 5.52 to 6.00
2 | Cc1cc(C)c(CNC(=O)c2cc(-c3cccc(CN(C)CCO)c3)cc3c2cnn3C2CCCC2)c(=O)[nH]1 [Compound C-29] | > 6.52
3 | Cc1cc(C)c(CNC(=O)c2cc(N(C)CCN(C)C)nc3c2cnn3C(C)C)c(=O)[nH]1 [Compound B-135] | 5.00 to 5.52
4 | Cc1cc(C)c(CNC(=O)c2cc(C3=CCN(C(=O)C4CN(C)C4)CC3)cc3c2cnn3C2CCCC2)c(=O)[nH]1 [Compound D-50] | > 6.52
5 | Cc1cc(C)c(CNC(=O)c2cc(O)nc3c2cnn3C(C)C)c(=O)[nH]1 [Compound B-147] | 4.30 to 5.00
6 | Cc1cc(C)c(CNC(=O)c2cc(C3=CC(C)(C)NC(C)(C)C3)nc3c2cnn3C2CCCC2)c(=O)[nH]1 [Compound B-5, 1-cyclopentyl-N-((4,6-dimethyl-2-oxo-1,2-dihydropyridin-3-yl)methyl)-6-(2,2,6,6-tetramethyl-1,2,3,6-tetrahydropyridin-4-yl)-1H-pyrazolo[3,4-b]pyridine-4-carboxamide] | > 6.52
7 | Cc1cc(C)c(CNC(=O)c2cc(C3CCN(C(=O)CN(C)C)CC3)nc3c2cnn3C(C)C)c(=O)[nH]1 [Compound B-57] | 6.00 to 6.52
8 | Cc1cc(C)c(CNC(=O)c2cc(-c3ccc(COCCCN4CCOCC4)cc3)cc3c2cnn3C2CCCC2)c(=O)[nH]1 [Compound C-18] | > 6.52
9 | Cc1cc(C)c(CNC(=O)c2cc(C3CCCCC3)nc3c2cnn3C(C)C)c(=O)[nH]1 [Compound B-142] | 5.00 to 5.52
10 | Cc1cc(C)c(CNC(=O)c2cc(-c3ccc(C(=O)NCCN(C)C)cc3)nc3c2cnn3C(C)C)c(=O)[nH]1 [Compound A-18] | > 6.52
11 | Cc1cc(CN2CCC[C@@H]2C(N)=O)c(CNC(=O)c2cc(Br)cc3c2cnn3C2CCCC2)c(=O)[nH]1 [Compound D-22] | 5.52 to 6.00
12 | Cc1cc(C)c(CNC(=O)c2cc(C(C)C)cc3c2cnn3C2CCCC2)c(=O)[nH]1 [Compound D-20, 1-cyclopentyl-N-((4,6-dimethyl-2-oxo-1,2-dihydropyridin-3-yl)methyl)-6-isopropyl-1H-indazole-4-carboxamide] | 6.00 to 6.52
13 | Cc1cc(C)c(CNC(=O)c2cc(N3CCC(O)CC3)nc3c2cnn3C(C)C)c(=O)[nH]1 [Compound B-11, N-((4,6-dimethyl-2-oxo-1,2-dihydropyridin-3-yl)methyl)-6-(4-hydroxypiperidin-1-yl)-1-isopropyl-1H-pyrazolo[3,4-b]pyridine-4-carboxamide] | 5.52 to 6.00
14 | Cc1cc(C)c(CNC(=O)c2cc(-c3cccc(CNCCN4CCOCC4)c3)nc3c2cnn3C(C)C)c(=O)[nH]1 [Compound A-126] | 6.00 to 6.52
15 | Cc1cc(C)c(CNC(=O)c2cc(-c3ccc(CN4CCOCC4)c(Cl)c3)cc3c2cnn3C2CCCC2)c(=O)[nH]1 [Compound C-28] | > 6.52
16 | Cc1cc(CN(C)CCN(C)C)c(CNC(=O)c2cccc3c2cnn3C2CCCC2)c(=O)[nH]1 [Compound D-75] | 5.52 to 6.00
17 | Cc1cc(C)c(CNC(=O)c2cc(Br)cc3c2cnn3C2CCN(C(=O)C3CNC3)CC2)c(=O)[nH]1 [Compound D-14, 1-(1-(azetidine-3-carbonyl)piperidin-4-yl)-6-bromo-N-((4,6-dimethyl-2-oxo-1,2-dihydropyridin-3-yl)methyl)-1H-indazole-4-carboxamide] | > 6.52
18 | CC(=O)n1ncc2c(C(=O)NCc3c(C)cc(C)[nH]c3=O)cc(C3=CC(C)(C)NC(C)(C)C3)nc21 [Compound B-154] | 4.30 to 5.00
19 | Cc1cc(C)c(CNC(=O)c2cc(-c3cccc(CN(C)C)c3)nc3c2cnn3C(C)C)c(=O)[nH]1 [Compound A-3, N-((4,6-dimethyl-2-oxo-1,2-dihydropyridin-3-yl)methyl)-6-(3-((dimethylamino)methyl)phenyl)-1-isopropyl-1H-pyrazolo[3,4-b]pyridine-4-carboxamide] | 6.00 to 6.52
